The text below walks through data of patent publication US9096641B2, “Imidazolyl progesterone antagonists” (Evestra, Inc., priority 2013, dated 2015).

The target in one test is T1, glucocorticoid receptor (Homo sapiens, UniProt P04150).
T1 construct: host or cells: HEK 293T
T1 sequence (P04150 524-758 limits assumed): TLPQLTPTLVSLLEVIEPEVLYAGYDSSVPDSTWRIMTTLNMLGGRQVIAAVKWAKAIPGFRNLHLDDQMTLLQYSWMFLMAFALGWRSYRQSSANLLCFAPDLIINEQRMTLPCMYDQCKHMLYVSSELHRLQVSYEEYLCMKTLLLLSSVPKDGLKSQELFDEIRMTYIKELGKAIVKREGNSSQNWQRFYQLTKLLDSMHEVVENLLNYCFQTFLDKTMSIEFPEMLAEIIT
Put plainly: Glucocorticoid Antagonist Screen (SelectScreen cell-based nuclear receptor profiling, GeneBLAzer beta-lactamase reporter). The following applies: relative to RU486, which is 100%; glucocorticoid receptor-LBD-UAS-bla HEK 293T cells; activated by control agonist Dexamethasone. The procedure:
(§1) Determination of the agonist/antagonist nature of the test compounds was carried out using Invitrogen's SelectScreen™ Cell-based nuclear receptor profiling service which uses the GeneBLAzer® Beta-lactamase reporter technology. Basically this assay uses a Beta-lactamase cDNA under transcriptional control of an Upstream Activator Sequence (UAS). The UAS is activated by the GAL4 transcription factor DNA binding domain (DBD), which is expressed as a fusion protein with the target receptor ligand binding domain (LBD). Upon ligand binding, the GAL4(DBD)-NR(LDB) binds to the UAS, which controls transcription of Beta-lactamase. Beta-lactamase cleaves a special engineered fluorescent substrate which results in a change in the measured fluorescence wavelength.
(§2) The progesterone receptor-LBD-UAS-bla HEK 293T cells are thawed and prepared as described above for the Agonist screen. 4 μL of a 10× serial dilution of control antagonist RU486 (starting concentration, 100 nM) or test compounds are added to appropriate wells of a TC-Treated assay plate. 32 μL of cell suspension is added to the wells which is then pre-incubated at 37° C./5% CO2 in a humidified incubator with test compounds and control antagonist titration for 30 min. 4 μL of a 10× control agonist (see above) at the predetermined EC80 concentration is added to wells containing the control antagonist or test compounds. The plate is incubated for 16-24 h at 37° C./5% CO2 in a humidified incubator. 8 μL of 1 μM Substrate Loading Solution is added to each well and the plate is incubated for 2 h at room temperature. The plate is then read on a fluorescence plate reader (Tecan Safire).
The generalized protocol for the Glucocorticoid Antagonist Screen activated by control Agonist Dexamethasone was carried out as described for the Progesterone Antagonist Screen with the exception that glucocorticoid receptor-LBD-UAS-bla HEK 293T cells were used. The control antagonist used for the glucocorticoid assay was also RU486.

The target of a further test is T2, progesterone receptor (Homo sapiens, UniProt P06401).
T2 construct: host or cells: HEK 293T
T2 sequence (P06401 679-913 limits assumed): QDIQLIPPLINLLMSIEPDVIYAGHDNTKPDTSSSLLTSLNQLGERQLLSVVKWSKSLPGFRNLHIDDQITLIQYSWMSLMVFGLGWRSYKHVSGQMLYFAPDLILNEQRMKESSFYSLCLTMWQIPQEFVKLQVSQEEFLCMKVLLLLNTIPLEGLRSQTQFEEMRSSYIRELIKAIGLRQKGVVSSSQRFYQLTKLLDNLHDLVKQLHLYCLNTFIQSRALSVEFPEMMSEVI
Briefly: Progesterone Antagonist Screen (SelectScreen cell-based nuclear receptor profiling, GeneBLAzer beta-lactamase reporter). The following applies: relative to RU486, which is 100%; progesterone receptor-LBD-UAS-bla HEK 293T cells; activated by control agonist R5020 at EC80. The method, then:
as §1
The generalized protocol used for the Progesterone Antagonist Screen, activated by control Agonist R5020 is as follows:
as §2

As to `C[C@]12C[C@H](c3ccc(-n4ccnc4)cc3)C3=C4CCC(=O)C=C4CC[C@H]3[C@@H]1CC[C@@]2(O)C(F)(F)C(F)(F)F` [Ia, 11β-(4′-(1-imidazolyl)phenyl)-17β-hydroxy-17-(1,1,2,2,2-pentafluoroethyl)-estra-4,9-diene-3-one], the “Glucocorticoid Antagonist (%)” value on glucocorticoid receptor came to 9%. The “Progesterone Antagonist (%)” value at progesterone receptor was found to be 267%.

Take `C[C@]12C[C@H](c3ccc(-n4ccnc4)cc3)C3=C4CCC(=O)C=C4CC[C@H]3[C@@H]1CC[C@@]2(O)C#CC(F)(F)F` [Ib, 11β-(4′-(1-imidazolyl)phenyl)-17β-hydroxy-17-(3,3,3-trifluoro-1-propynyl)-estra-4,9-diene-3-one]: the “Glucocorticoid Antagonist (%)” value on glucocorticoid receptor came out at 83%. Besides, the “Progesterone Antagonist (%)” value at progesterone receptor is listed as 34%.

Regarding `C=C1CCOC12CCC1C3CCC4=CC(=O)CCC4=C3[C@@H](c3ccc(-n4ccnc4)cc3)C[C@@]12C` (stereo partly drawn) [Ie, 11β-(4′-[1-imidazolyl]phenyl)-17,23-epoxy-19,24-dinor-17α-chola-4,9,20-triene-3-one], the “Glucocorticoid Antagonist (%)” value at glucocorticoid receptor is recorded as 5%. For the same molecule, on progesterone receptor, the “Progesterone Antagonist (%)” value is recorded as 163%.

With `C=CC(F)(F)[C@]1(O)CC[C@H]2[C@@H]3CCC4=CC(=O)CCC4=C3[C@@H](c3ccc(-n4ccnc4)cc3)C[C@@]21C` [Id, 11β-(4′-(1-imidazolyl)phenyl)-17β-hydroxy-17-(1,1-difluoroprop-2-enyl)-estra-4,9-diene-3-one], the “Glucocorticoid Antagonist (%)” value at glucocorticoid receptor was 13%. Further, on progesterone receptor, the “Progesterone Antagonist (%)” value amounted to 90%.

For the molecule `CC(=O)c1ccc([C@H]2C[C@@]3(C)[C@@H](CC[C@@]3(O)C(F)(F)C(F)(F)F)[C@@H]3CCC4=CC(=O)CCC4=C32)cc1` [ZK 230211, reference compound], the “Glucocorticoid Antagonist (%)” value at glucocorticoid receptor came to 6%. In addition, the “Progesterone Antagonist (%)” value on progesterone receptor was 81%.

In the case of `C[C@]12C[C@H](c3ccc(-n4ccnc4)cc3)C3=C4CCC(=O)C=C4CCC3C1CC[C@@]2(O)/C=C/C(F)(F)F` (stereo partly drawn) [Ic, 11β-(4′-(1-imidazolyl)phenyl)-17β-hydroxy-17-(3,3,3-trifluoroprop-1(E)-enyl)-estra-4,9-diene-3-one], on glucocorticoid receptor, the “Glucocorticoid Antagonist (%)” value stood at 31%. For the same molecule, the “Progesterone Antagonist (%)” value on progesterone receptor is 54%.
